Measured values reported in paper PMC10892120, “Design, Synthesis and Biological Assessment of N′-(2-Oxoindolin-3-ylidene)-6-methylimidazo[2,1-b]thiazole-5-carbohydrazides as Potential Anti-Proliferative Agents toward MCF-7 Breast Cancer” (Pharmaceuticals, 2024).

Assays:
[1] = system: MCF-7 breast cell line; assay: MTT assay, anti-proliferative activity toward MCF-7; type: cell-based; conditions: Homo sapiens, MCF7
Procedure: . The developed compounds were evaluated in vitro using the MTT cell viability assay following the published techniques (Supplementary Data, page 42). […]
The 96 well tissue culture plate was seeded with 1 X 10^5 cells / ml (100 ul / well) and cultured at 37 degrees Celsius for 24 hours to form a full monolayer sheet. After forming a confluent sheet of cells, growth medium was decanted from 96 well micro titer plates, the cell monolayer was washed twice with wash media, and two-fold dilutions of the tested sample were prepared in RPMI medium with 2% serum (maintenance medium). In each well, 0.1 ml of each dilution was examined, with three wells serving as controls and receiving only maintenance media.
The plate was incubated at 37 degrees Celsius and then analyzed. Cells were examined for any physical evidence of toxicity, such as partial or total monolayer loss, rounding, shrinkage, or cell granulation. MTT solution (5mg/ml in PBS) was prepared (BIO BASIC CANADA INC), and 20ul MTT solution was added to each well. Shake the MTT into the medium for 5 minutes at 150rpm on a shaking table. Incubate for 4 hours (37°C, 5% CO2) to allow the MTT to be digested. Remove the media. (If required, dry plate on paper towels to remove residue. In 200ul DMSO, resuspend formazan (MTT metabolic product). Shake at 150rpm for 5 minutes to properly mix the formazan into the solvent. At 560nm, measure optical density and subtract background at 620nm. The optical density should be proportional to the number of cells. MCF-7 and MCF-10A cell lines were provided with 10% fetal bovine serum (FBS, Sigma-Aldrich, MO, USA). Data are presented as the mean of the IC50 values ± SD from three different experiments. […]

CCCCN1C(=O)C(=NNC(=O)c2c(C)nc3sccn23)c2ccccc21 [Compound 6i, N′-(1-Butyl-2-oxoindolin-3-ylidene)-6-methylimidazo[2,1-b]thiazole-5-carbohydrazide]
IC50 [1]: 8.38 ± 0.62 µM | melting point: 250 to 251 °C
